According to patent US9433607B2, “Composition for prevention or treatment of cancer comprising N-methylenenaphtho[2,1-b]furan-2-carbohydrazide derivatives as an active ingredient” (KOREA RESEARCH INSTITUTE OF BIOSCIENCE AND BIOTECHNOLOGY, priority 2012, dated 2016):

Assays:
[1] = tested on: FVB/N mouse induced with skin tumor; experiment: DMBA/TPA induced skin tumor model; format: in vivo
Protocol: In this invention, the male FVB/N mice (6-7 weeks, Jackson Laboratory, USA) were raised under the condition of 12 hr bright lighting/12 hr dim lighting at the temperature of 24±2° C. with the humidity of 50±10% with water and feed provided freely. The care and process of the test animal was reviewed and approved by Institutional Animal Care and Use Committee (IACUC), Korea Research Institute of Bioscience and Biotechnology (KRIBB). DMBA (7,12-dimethylbenz[α]anthracene), TPA (12-O-tetradecanoylphorbol-13-acetate) and cholchicine were purchased from Sigma-Aldrich, and the synthesized ethyl(2-methyl-3{(E)-[(naphtho[2,1-b]furan-2-ylcarbonyl)hydrazono]methyl}-1H-indole-1-yl)acetate was provided from Dr. Thimmegowda.
Particularly, the dorsal skin of the said FVB/N mouse was shaved two days before the experiment. 100 μg of DMBA was added to 0.2 ml of acetone, which was treated to the mouse by single-local administration for 1 week to induce tumor. 5 fig of TPA was added to 0.2 ml of acetone, which was treated to the above mouse induced with tumor […] for 15 weeks to grow the tumor. 500 nM of ethyl(2-methyl-3{(E)-[(naphtho[2,1-b]furan-2-ylcarbonyl)hydrazono]methyl}-1H-indole-1-yl)acetate or cholchicine was dissolved in 0.2 ml of acetone, which was treated to the above mouse locally for 30 minutes each time for 15 weeks. Each group was composed of at least 10 mice and total 4 groups were prepared:
Group 1: DMBA and acetone treated group (negative control)
Group 2: DMBA and TPA treated group (positive control)
Group 3: DMBA/TPA and cholchicine treated group (experimental group 1)
Group 4: DMBA/TPA and ethyl(2-methyl-3{(E)-[(naphtho[2,1-b]furan-2-ylcarbonyl)hydrazono]methyl}-1H-indole-1-yl)acetate treated group (experimental group 2).
In addition, skin tumor such as papilloma was checked every week during the whole period of experiment. The tumor in the size of at least 2 mm was judged as positive. 15 weeks later, the mice were sacrificed with CO2. The skin tumor was extracted for histopathological/biochemical analysis.
The average number and the volume of tumor in each group were calculated.
Each mouse group was treated with different materials by the same manner as described in Example <8-2>, followed by observation for 15 weeks, and then the number of mice having skin tumor was counted. Tumor development rate was presented as %.
The mouse induced with skin tumor by the same manner as described in Example <8-2> was treated with DMBA, and then the induced tumors were observed and weighed for 15 weeks to produce the average weight of tumor.

[2] = tested on: K562/ADR; experiment: Cytotoxicity MTT assay, multi-drug resistant K562/ADR; format: cell-based
Protocol: Particularly, K562, MCF7 (Bio-Evaluation Center, Korea Research Institute of Bioscience and Biotechnology, Korea), and the multi-drug resistant cell lines thereof, K562/ADR and MCF7/ADR (Bio-Evaluation Center, Korea Research Institute of Bioscience and Biotechnology, Korea) were cultured in microtiter plate (1-3×10^3 cells/well). Then, the cells were treated with ethyl(2-methyl-3{(E)-[(naphtho[2,1-b]furan-2-ylcarbonyl)hydrazono]methyl}-1H-indole-1-yl)acetate, doxorubicin, or taxol, followed by culture for 4 days. Cytotoxicity was investigated by MTT assay by the same manner as described in Example <1-2>. IC50 was calculated by long-dose response curve. The data presents the mean value obtained from the assay performed in triplicate (Table 3).
The resistance factor of the multi-drug resistant cell line indicates the ratio of IC50 of the multi-drug resistant cell line to IC50 of the parent cell line showing no resistance, which was presented as a number in the bracket.

[3] = tested on: A-172; experiment: Anti-proliferative MTT assay, A-172; format: cell-based; settings: Homo sapiens, 96 h, A-172, Brain, 4 days
Protocol: (§1) Various cancer cell lines (rectal cancer, prostate cancer, breast cancer, lung cancer, stomach cancer, liver cancer, leukemia, brain cancer, and glioma cell lines) were cultured in microtiter plate (1-3×10^3 cells/well), to which ethyl(2-methyl-3{(E)-[(naphtho[2,1-b]furan-2-ylcarbonyl)hydrazono]methyl}-1H-indole-1-yl)acetate was treated. The culture continued for 4 days. Cytotoxicity was investigated by MTT assay by the same manner as described in Example <1-2>. IC50 was calculated by long-dose response curve. The data presents the mean value obtained from the assay performed in triplicate.

[4] = tested on: SNU-601; experiment: Anti-proliferative MTT assay, SNU-601; format: cell-based; settings: 96 h, SNU-601, Stomach, 4 days
Protocol: as §1

[5] = tested on: HeLa cell line; experiment: Anti-proliferative activity in HeLa cells (MTT assay); format: cell-based; settings: Homo sapiens
Protocol: Particularly, HeLa cell line (ATCC, USA) was treated with the compounds of Table 1 respectively, and then IC50 (the half maximal inhibitory concentration) was investigated (Table 1).
HeLa cells were treated with 100 nM, 250 nM, 500 nM and 1 μM of ethyl(2-methyl-3{(E)-[(naphtho[2,1-b]furan-2-ylcarbonyl)hydrazono]methyl}-1H-indole-1-yl)acetate or DMSO for 4 days. Then, the cell growth was confirmed by MTT assay. All the obtained numbers were calculated by normalizing the value of Day 0. The data presents the mean value obtained from the assay performed in triplicate.
Particularly, HeLa cells were distributed in a 96-well plate at the density of 2×10^3 cells/well. The cells were treated with DMSO or the compound of the present invention, to which MTT reagent was added at the concentration of 10 μl/well. 2 hours later, OD450 was measured, which became the value of Day 0. 4 days later, MTT reagent was added thereto again. 2 hours later, OD450 was measured. The data presents the mean value obtained from the assay performed in triplicate.

[6] = tested on: U373MG; experiment: Anti-proliferative MTT assay, U373MG; format: cell-based; settings: Homo sapiens, U373 MG, 96 h, Brain, 4 days
Protocol: as §1

SMILES: CCOC(=O)Cn1c(C)c(/C=N/NC(=O)c2cc3c(ccc4ccccc43)o2)c2ccccc21 [STK899704]
- number of skin tumor ([1]; 500 nM in 0.2 ml acetone, local, 15 weeks): significantly reduced
- weight of tumor compared with positive control ([1]; 15 weeks): significantly lighter
- average volume of skin tumor reduced compared with positive control ([1]; 15 weeks, 500 nM local): 20.3%
- decrease of average number of skin tumor compared with positive control ([1]; 15 weeks, 500 nM local): 4.75 times
- average weight of tumor as fraction of positive control ([1]; 15 weeks, experimental group 2): 1/10
- week to which tumor formation was postponed ([1]; tumor of at least 2 mm, positive control from 8th week): 10 week
- IC50 ([2]; Homo sapiens, 96 h, K562/ADR, MTT, 4 days): 285000 nM
- resistance factor (number in the bracket) ([2]; ratio of IC50 of K562/ADR to IC50 of parent K562): 0.6
- IC50 [3]: 603 nM
- IC50 [4]: 773 nM
- IC50 ([5]; 96 h, HeLa, Cervix, MTT, 4 days): 260 nM
- IC50 ([5]; HeLa cell line): 260 nM
- IC50 [6]: 517 nM
